Data: patent EP1100481B1, “PHARMACEUTICAL FORMULATIONS COMPRISING BECLOMETHASONE DIPROPIONATE FOR THE TREATMENT OF INFLAMMATORY BOWEL DISEASE” (CHIESI FARMACEUTICI S.p.A., priority 1998, dated 2000)

Assay: Pharmacokinetic-scintigraphic study of systemic absorption
Type: in vivo
Details: healthy volunteers
Procedure: The disintegration behavior of the tablets was also evaluated in vivo, at the intestinal site, in a study carried out on 8 healthy volunteers. A scintigraphic technique was employed as it is suitable for evaluating the position and integrity of the tablet within the gastrointestinal tract (Steed K.P. et al. Int J Pharmaceutics 1994; 112:199-206). […] These findings confirmed that the modified-relase tablets of the invention meet the requirements considered necessary for a formulation designed for the topical treatment of inflammatory bowel disease.

systemic absorption of unmetabolised BDP and/or of its metabolites: absence of systemic absorption
Compound: CCC(=O)OCC(=O)[C@@]1(OC(=O)CC)[C@@H](C)C[C@H]2[C@@H]3CCC4=CC(=O)C=C[C@]4(C)[C@@]3(Cl)[C@@H](O)C[C@@]21C [BDP, beclomethasone dipropionate]
